Results reported in ChEMBL document CHEMBL5614434, “A Lysosome-Targeting hNEU1 Inhibitor Treats Myocardial Infarction: A Potential Therapeutic Breakthrough” (J Med Chem, 2024).
Active and inactive are the calls of the source. The calls are words filed in the database; no cut-off is given here.

Columns and labels:
[1] = Metabolic stability in mouse liver microsomes assessed as parent compound remaining measured after 0.5 mins in presence of NADPH regenerating system by LC-MS/MS analysis; format: ADME, Microsome; details: read-out: Stability
[2] = Metabolic stability in mouse liver microsomes assessed as parent compound remaining measured after 60 mins in absence of NADPH regenerating system by LC-MS/MS analysis; format: ADME, Microsome; details: read-out: Stability
[3] = system: Mus musculus; assay: Cardioprotective activity against isoproterenol-induced myocardial injury in C57/6J mouse model assessed as decrease in CK-MB level in serum at 15 mg/kg, ip pretreated with isoproterenol for 3 days followed by compound addition and measured after 3 days by automatic biochemical analysis; format: functional, organism-based; details: time 3.0 day
[4] = system: Mus musculus; assay: Cardioprotective activity against isoproterenol-induced myocardial injury in C57/6J mouse model assessed as reduction in eosinophil ratio at 15 mg/kg, ip pretreated with isoproterenol for 3 days followed by compound addition and measured after 3 days; format: functional, organism-based; details: time 3.0 day
[5] = system: Mus musculus; assay: Cardioprotective activity against isoproterenol-induced myocardial injury in C57/6J mouse model assessed as inhibition of collagen fiber proliferation at 15 mg/kg, ip pretreated with isoproterenol for 3 days followed by compound addition and measured after 3 days by masson staining based analysis; format: functional, organism-based; details: time 3.0 day
[6] = system: Mus musculus; assay: Cardioprotective activity against isoproterenol-induced myocardial injury in C57/6J mouse model assessed as reduction in eosinophil count at 15 mg/kg, ip pretreated with isoproterenol for 3 days followed by compound addition and measured after 3 days; format: functional, organism-based; details: time 3.0 day
[7] = Passive permeability in MDCK cells; format: ADME, cell-based, Canis lupus familiaris; details: dog, read-out: permeability
[8] = Metabolic stability in mouse liver microsomes assessed as parent compound remaining measured after 0.5 mins in absence of NADPH regenerating system by LC-MS/MS analysis; format: ADME, Microsome; details: read-out: Stability
[9] = system: H9c2; assay: Induction of apoptosis in isoproterenol-induced rat H9c2 cells assessed as early apoptotic cells at 0.1 micromol/L by annexin V-FITC and PI staining based flow cytometry analysis (reference value: 10.37%); format: toxicity, cell-based; details: h9c2, 0.1 µM, dose 0.1 µmol/L
[10] = system: H9c2; assay: Upregulation of Ho-1 level in isoproterenol-induced rat H9c2 cells at 0.01 to 1 uM by Western blot analysis; format: functional, cell-based; details: dose 0.01-1 µM
[11] = Metabolic stability in mouse liver microsomes assessed as parent compound remaining measured after 30 mins in absence of NADPH regenerating system by LC-MS/MS analysis; format: ADME, Microsome; details: read-out: Stability
[12] = system: H9c2; assay: Cytotoxicity against isoproterenol-induced rat H9c2 cells assessed as cell viability at 0.001 to 1 uM under normoxia condition by CCK-8 method; format: toxicity, cell-based; details: h9c2, 1 µM, dose 0.001-1 µM
[13] = system: Mus musculus; assay: Cardioprotective activity against isoproterenol-induced myocardial injury in C57/6J mouse model assessed as suppression of mTORC1 overexpression at 15 mg/kg, ip pretreated with isoproterenol for 3 days followed by compound addition and measured after 3 days by immunohistochemistry analysis; format: functional, organism-based; details: time 3.0 day
[14] = Metabolic stability in mouse liver microsomes assessed as parent compound remaining measured after 15 mins in presence of NADPH regenerating system by LC-MS/MS analysis; format: ADME, Microsome; details: read-out: Stability
[15] = system: H9c2; assay: Downregulation of mTORC1 level in isoproterenol-induced rat H9c2 cells by Western blot analysis; format: functional, cell-based; details: dose 0.01-1 µM
[16] = system: H9c2; assay: Induction of autophagy in isoproterenol-induced rat H9c2 cells transfected with GFP-tagged LC3 assessed as increase in number of green fluorescence by confocal microscopy analysis; format: functional, cell-based
[17] = Drug uptake in lysosomes of rat H9c2 cells assessed as time required for compound concentration in lysosomes to exceed the cell lysates by HPLC analysis; format: ADME, subcellular, Lysosome
[18] = system: Mus musculus; assay: Cardioprotective activity against isoproterenol-induced myocardial injury in C57/6J mouse model assessed as reduction in neutrophil ratio at 15 mg/kg, ip pretreated with isoproterenol for 3 days followed by compound addition and measured after 3 days; format: functional, organism-based; details: time 3.0 day
[19] = system: Mus musculus; assay: Cardioprotective activity against isoproterenol-induced myocardial injury in C57/6J mouse model assessed as effect on cTNI level in serum at 15 mg/kg, ip pretreated with isoproterenol for 3 days followed by compound addition and measured after 3 days by automatic biochemical analysis; format: functional, organism-based; details: time 3.0 day
[20] = system: Mus musculus; assay: Cardioprotective activity against isoproterenol-induced myocardial injury in C57/6J mouse model assessed as reduction in neutrophil count at 15 mg/kg, ip pretreated with isoproterenol for 3 days followed by compound addition and measured after 3 days; format: functional, organism-based; details: time 3.0 day
[21] = Metabolic stability in mouse liver microsomes assessed as parent compound remaining measured after 60 mins in presence of NADPH regenerating system by LC-MS/MS analysis; format: ADME, Microsome; details: read-out: Stability
[22] = system: H9c2; assay: Induction of autophagy in isoproterenol-induced rat H9c2 cells assessed as downregulation of P62 expression by Western blot analysis; format: functional, cell-based
[23] = Dose normalized AUClast in male C57/6J mouse at 15 mg/kg, ip measured upto 24 hrs by LC-MS/MS analysis; format: ADME, organism-based; details: in vivo
[24] = Apparent volume of distribution during terminal phase in male C57/6J mouse at 15 mg/kg, ip measured upto 24 hrs by LC-MS/MS analysis; format: ADME, organism-based; details: in vivo, read-out: Vz/F
[25] = Metabolic stability in mouse liver microsomes assessed as half life measured upto 60 mins in presence of NADPH regenerating system by LC-MS/MS analysis; format: ADME, Microsome
[26] = system: H9c2; assay: Cytotoxicity against rat H9c2 cells assessed as cell viability at 0.001 to 50 uM under normoxia condition by CCK-8 method; format: toxicity, cell-based; details: h9c2, 50 µM, dose 0.001-50 µM
[27] = Half life in male C57/6J mouse at 15 mg/kg, ip measured upto 24 hrs by LC-MS/MS analysis; format: ADME, organism-based; details: in vivo
[28] = Cmax in male C57/6J mouse at 15 mg/kg, ip measured upto 24 hrs by LC-MS/MS analysis; format: ADME, organism-based; details: in vivo
[29] = system: Mus musculus; assay: Cardioprotective activity against isoproterenol-induced myocardial injury in C57/6J mouse model assessed as reduction in CK value in serum at 15 mg/kg, ip pretreated with isoproterenol for 3 days followed by compound addition and measured after 3 days by automatic biochemical analysis; format: functional, organism-based; details: time 3.0 day
[30] = Metabolic stability in mouse liver microsomes assessed as parent compound remaining measured after 15 mins in absence of NADPH regenerating system by LC-MS/MS analysis; format: ADME, Microsome; details: read-out: Stability
[31] = system: Mus musculus; assay: Cardioprotective activity against isoproterenol-induced myocardial injury in C57/6J mouse model assessed as decrease in pericardial thickness at 15 mg/kg, ip pretreated with isoproterenol for 3 days followed by compound addition and measured after 3 days by H and E staining based analysis; format: functional, organism-based; details: time 3.0 day
[32] = system: Mus musculus; assay: Cardioprotective activity against isoproterenol-induced myocardial injury in C57/6J mouse model assessed as appearance of clear cell boundaries in heart at 15 mg/kg, ip pretreated with isoproterenol for 3 days followed by compound addition and measured after 3 days by H and E staining based analysis; format: functional, organism-based; details: time 3.0 day
[33] = Metabolic stability in mouse liver microsomes assessed as parent compound remaining measured after 30 mins in presence of NADPH regenerating system by LC-MS/MS analysis; format: ADME, Microsome; details: read-out: Stability
[34] = Apparent […] clearance in male C57/6J mouse at 15 mg/kg, ip measured upto 24 hrs by LC-MS/MS analysis; format: ADME, organism-based; details: in vivo
[35] = Metabolic stability in mouse liver microsomes assessed as clearance measured upto 60 mins in presence of NADPH regenerating system by LC-MS/MS analysis; format: ADME, Microsome; details: read-out: CLH
[36] = Metabolic stability in mouse liver microsomes assessed as parent compound remaining measured after 45 mins in absence of NADPH regenerating system by LC-MS/MS analysis; format: ADME, Microsome; details: read-out: Stability
[37] = system: Mus musculus; assay: Cardioprotective activity against isoproterenol-induced myocardial injury in C57/6J mouse model assessed as reduction in cardiac swelling size at 15 mg/kg, ip pretreated with isoproterenol for 3 days followed by compound addition and measured after 3 days (reference value: 5.15 millimeter); format: functional; details: time 3 day
[38] = Tmax in male C57/6J mouse at 15 mg/kg, ip measured upto 24 hrs by LC-MS/MS analysis; format: ADME, organism-based; details: in vivo
[39] = Observed MRT(infinity) in male C57/6J mouse at 15 mg/kg, ip measured upto 24 hrs by LC-MS/MS analysis; format: ADME, organism-based; details: in vivo
[40] = Permeability of compound in MDCK cells; format: ADME, cell-based, Canis lupus familiaris; details: dog, read-out: permeability
[41] = system: Mus musculus; assay: Cardioprotective activity against isoproterenol-induced myocardial injury in C57/6J mouse model assessed as reduction in pericardial thickness at 15 mg/kg, ip pretreated with isoproterenol for 3 days followed by compound addition and measured after 3 days by masson staining based analysis; format: functional, organism-based; details: time 3.0 day
[42] = system: H9c2; assay: Induction of autophagy in isoproterenol-induced rat H9c2 cells assessed as downregulation of PARP1 expression by Western blot analysis; format: functional, cell-based
[43] = system: H9c2; assay: Induction of ATP production in isoproterenol-induced rat H9c2 cells at 0.1 micromol/L by fluorescence based analysis; format: functional; details: dose 0.1 µmol/L
[44] = system: H9c2; assay: Induction of autophagy in isoproterenol-induced rat H9c2 cells assessed as increase in LC3-I to LC3-II conversion by confocal microscopy based analysis; format: functional, cell-based
[45] = AUClast in male C57/6J mouse at 15 mg/kg, ip measured upto 24 hrs by LC-MS/MS analysis; format: ADME, organism-based; details: in vivo
[46] = Metabolic stability in mouse liver microsomes assessed as parent compound remaining measured after 45 mins in presence of NADPH regenerating system by LC-MS/MS analysis; format: ADME, Microsome; details: read-out: Stability
[47] = system: H9c2; assay: Induction of apoptosis in isoproterenol-induced rat H9c2 cells assessed as late apoptotic cells at 0.1 micromol/L by annexin V-FITC and PI staining based flow cytometry analysis (reference value: 11.49%); format: toxicity, cell-based; details: h9c2, 0.1 µM, dose 0.1 µmol/L
[48] = Toxicity in isoproterenol-induced male C57/6J mouse model assessed as recovery of growth rate at 15 mg/kg, ip pretreated with isoproterenol for 3 days followed by compound addition and measured after 3 days; format: organism-based; details: in vivo, 72 h, time 3 day
[49] = system: H9c2; assay: Upregulation of cytochrome-c level in isoproterenol-induced rat H9c2 cells at 0.01 to 1 uM by Western blot analysis; format: functional, cell-based; details: dose 0.01-1 µM
[50] = system: Mus musculus; assay: Cardioprotective activity against isoproterenol-induced myocardial injury in C57/6J mouse model assessed as decrease in heart weight ratio at 15 mg/kg, ip pretreated with isoproterenol for 3 days followed by compound addition and measured after 3 days (reference value: 0.56 %); format: functional; set-up: scale not given: the % may be the effect or the level left; details: time 3 day
[51] = AUC infinity in male C57/6J mouse at 15 mg/kg, ip measured upto 24 hrs by LC-MS/MS analysis; format: ADME, organism-based; details: in vivo
[52] = system: H9c2; assay: Inhibition of ROS production in isoproterenol-induced rat H9c2 cells assessed as reduction in DCF value at 0.1 uM by DCFH-DA staining based flow cytometry analysis (reference value: 371.9); format: functional

SMILES: CCC(CC)O[C@@H]1C=C(C(=O)OCCN2CCOCC2)C[C@H](N)[C@H]1NC(C)=O
- remaining at 0.5 min [1]: 100%
- remaining at 1 h [2]: 97.2%
- Activity [3]: Active
- Activity [4]: Active
- Activity [5]: Active
- Activity [6]: Active
- Papp [7]: > 20 ×10⁻⁶ cm/s
- remaining at 0.5 min [8]: 100%
- Activity [9]: 6.07%
- Activity [10]: Active
- remaining at 0.5 h [11]: 109%
- Activity [12]: Non-Toxic
- Activity [13]: Active
- remaining at 0.25 h [14]: 89.9%
- Activity [15]: Dose-Dependent Effect
- Activity [16]: Active
- Time [17]: 3.43 min
- Activity [18]: Active
- Activity [19]: Active
- Activity [20]: Active
- remaining at 1 h [21]: 77.2%
- Activity [22]: Active
- AUClast/dose [23]: 139 kg·ng·h/mL/mg
- Vd/F [24]: 24 L/kg
- half-life [25]: 3.07 h
- Activity [26]: Non-Toxic
- half-life [27]: 2.37 h
- Cmax [28]: 2380 ng/mL
- Activity [29]: Active
- remaining at 0.25 h [30]: 106%
- Activity [31]: Active
- Activity [32]: Active
- remaining at 0.5 h [33]: 83.9%
- CL/F [34]: 120 mL/min/kg
- microsomal CLint [35]: 7.53 µL/min/mg
- remaining at 0.75 h [36]: 104%
- Activity [37]: 4.35 mm
- Tmax [38]: 0.25 h
- MRT inf [39]: 1.01 h
- Papp [40]: 44 ×10⁻⁶ cm/s
- Activity [41]: Active
- Activity [42]: Active
- Activity [43]: 48.9 nmol/mg
- Activity [44]: Active
- AUC(0-t) at 24 h [45]: 2080 ng·h/mL
- remaining at 0.75 h [46]: 83%
- Activity [47]: 0.15%
- Activity [48]: Non-Toxic
- Activity [49]: Active
- Activity [50]: 0.46%
- AUC(0-inf) [51]: 2100 ng·h/mL
- Activity [52]: 203.6

SMILES: CCC(CC)O[C@@H]1C=C(C(=O)O)C[C@H](N)[C@H]1NC(C)=O [OSELTAMIVIR CARBOXYLATE]
- Time [17]: 7.15 min
